The values below come from patent US12616672B2, “Methods for assessing risk of cardiovascular disease and methods and compounds for use in treating or preventing cardiovascular disease” (Queen Mary University of London, priority 2017, dated 2026).

The test system of assay [1] is peripheral blood leukocytes and platelets from CVD patients. Briefly: CVD patient whole blood incubated with RvD2n-3 DPA or RvD5n-3 DPA for 45 min, flow cytometry. The class given is cell-based, human. To be noted: no PAF. As to the method:
FIG. 8: RvD2n-3 DPA and RvD5n-3 DPA reduce leukocyte activation in peripheral blood from CVD patients. Peripheral blood from patients diagnosed with cardiovascular disease (CVD) was collected at 9:00 h. […] Expression of CD62P on (A) neutrophils (B) monocytes and CD11b on (C) neutrophils and (D) monocytes was investigated using flow cytometry and fluorescently labelled antibodies.
Whole blood was incubated with lineage-specific markers for 45 min (4° C., in DPBS containing 0.02% BSA). The following anti-human antibodies were used: VioBlue-anti-CD41, PE-Cy5-anti-CD62P, Brilliant Violet 711-anti-CD11b, APC-Cy7-anti-CD16, Alexa Fluor 647-anti-CD14. After staining, red blood cells were lysed using Whole Blood Lysing Reagent Kit, according to the manufacturer's instructions. Data was collected using a flow cytometer and analysis was conducted using appropriate software.
(§1) In select experiments platelet adhesion molecule expression was assessed. Here platelets were incubated with fluorescently labelled mouse anti-human VioBlue-anti-CD41, PE-Cy5-anti-CD62P, PerCP/Cy5.5-anti-CD63 and FITC-ant-CD42b for 30 min at 4° C. Cells were then washed and fluorescence, staining evaluated using LSRFortessa cell analyser (BD Biosciences) and analysed using FlowJo software (Tree Star Inc., V10).
For orientation: A flow cytometer gives signals particle by particle.

Another assay relates to platelet rich plasma. The assay can be described thus: PRP incubations with RvD5n-3 DPA then PAF, platelet adhesion molecule expression by flow cytometry. The format is cell-based, human. Particulars: 0.1-10 nM, 15 min, then PAF 100 nM 30 min. As to the method:
FIG. 21: RvD2n-3 DPA and RvD5n-3 DPA reduce monocyte, neutrophil and platelet activation in healthy volunteer peripheral blood. […] Cell activation and leukocyte-platelet aggregates were assessed using flow cytometry. (A,B) Images depicting platelet monocyte (A) and (B) platelet-neutrophil aggregates. Results are representative of n=3 distinct experiments. (C,D) Cumulative neutrophil (C) CD11b and (D) CD62P expression. (E,F) Monocyte (E) CD11b and (F) CD62P expression. Results are mean of n=5 per condition and expressed as percentage change from PAF incubated cells. *p<0.05 compared to PAF using Wilcoxon Signed Rank Test. (G) Platelet rich plasma was incubated with vehicle (PBS) or RvD5n-3 DPA 0.1-10 nM (15 min; 37° C.) and PAF (100 nM; 30 min; 37° C.). Adhesion molecule expression evaluated using flow cytometry. Results are mean±s.e.m. n=5 healthy volunteers. * p, 0.05 compared to Vehicle group using Friedman's test followed by Dunn's multiple comparisons test.
Peripheral blood from healthy volunteers was collected in acidified-citrate-dextrose. Blood was centrifuged at 500×g for 20 min. PRP was collected and cells incubated with RvD5n-3 DPA or vehicle (0.01% EtOH+PBS) for 15 min at 37° C. Cells were then incubated with PAF (100 nM) or Vehicle (0.01% EtOH) for 30 min at 37° C. Cells were then washed with PBS and cellular activation was assessed using flow cytometry as detailed below.
as §1

Where [2] appears, read: CVD patient whole blood, 0.1, 1, 10 nM, 45 min.
Setting [3] is: CVD patient whole blood, 45 min.

The structures appear in SMILES notation.

Regarding `CC/C=C\C[C@H](O)/C=C/C=C\C/C=C\C=C\[C@@H](O)CCCCCC(=O)O` [RvD5n-3 DPA, 7,17-trihydroxy-8E,10,13,15E,19Z-docosapentaenoic acid], in assay [1] (setting [2]), the “monocyte CD11b expression” value is recorded as “significantly reduced”, the “neutrophil CD11b expression” value is on record as “significantly reduced”, the platelet-monocyte aggregates entry is given as “reduction” and the platelet-neutrophil aggregates entry is “reduction”. Further, in assay [1] (setting [3]), the “platelet CD62P expression” value is given as “downregulated” and the “platelet CD63 expression” value is on record as “downregulated”. For the same compound, the “potency in reducing neutrophil-platelet and monocyte-platelet aggregates, compared” value in assay [1] (CVD patient whole blood) is reported as “higher potency than RvD2n-3 DPA”. In addition, in the assay on platelet rich plasma, the “PAF mediated upregulation of CD41 expression on platelets” value is “dose dependent reduction”, the “PAF mediated upregulation of CD62P expression on platelets” value is given as “dose dependent reduction” and the “PAF mediated upregulation of CD63 expression on platelets” value was “dose dependent reduction”.
